Data: the NIST ThermoML archive (doi:10.1021/je700339f)
Numbers after ± are expanded uncertainties.

Test: xn = mol fraction of the nth substance listed
Details: 298 K, Liquid

ClCCCCCCCl [1,6-dichlorohexane] + CC(=O)N(C)C
mass density [kg/m3]
Details | x2 = 0.1002 | x2 = 0.1985 | x2 = 0.3002 | x2 = 0.404 | x2 = 0.4943 | x2 = 0.6007 | x2 = 0.7006 | x2 = 0.8012 | x2 = 0.8994
100 kPa | 1054.5 ± 2.9 | 1045.2 ± 3 | 1034.5 ± 3 | 1023.1 ± 3.1 | 1012.3 ± 3.2 | 998.8 ± 3.3 | 985.3 ± 3.5 | 970.4 ± 3.7 | 954.6 ± 3.8
500 kPa | 1054.7 ± 2.9 | 1045.5 ± 3 | 1034.8 ± 3 | 1023.4 ± 3.1 | 1012.5 ± 3.2 | 999 ± 3.3 | 985.6 ± 3.5 | 970.7 ± 3.7 | 954.8 ± 3.8
1000 kPa | 1055.1 ± 2.9 | 1045.9 ± 3 | 1035.2 ± 3.1 | 1023.7 ± 3.1 | 1012.9 ± 3.3 | 999.3 ± 3.3 | 985.9 ± 3.5 | 971 ± 3.7 | 955.1 ± 3.8
1500 kPa | 1055.5 ± 2.9 | 1046.2 ± 3 | 1035.6 ± 3.1 | 1024.1 ± 3.1 | 1013.3 ± 3.3 | 999.6 ± 3.3 | 986.2 ± 3.5 | 971.3 ± 3.7 | 955.4 ± 3.8
2000 kPa | 1055.8 ± 2.9 | 1046.6 ± 3 | 1035.9 ± 3.1 | 1024.4 ± 3.1 | 1013.6 ± 3.3 | 1000 ± 3.3 | 986.5 ± 3.5 | 971.6 ± 3.7 | 955.7 ± 3.8
2500 kPa | 1056.2 ± 2.9 | 1046.9 ± 3 | 1036.2 ± 3.1 | 1024.8 ± 3.1 | 1013.9 ± 3.3 | 1000.3 ± 3.3 | 987 ± 3.5 | 972 ± 3.7 | 956.1 ± 3.8
2900 kPa | – | – | – | – | 1014.3 ± 3.3 | – | – | – | –
3000 kPa | 1056.5 ± 2.9 | 1047.3 ± 3 | 1036.6 ± 3.1 | 1025.1 ± 3.1 | – | 1000.6 ± 3.3 | 987.2 ± 3.5 | 972.3 ± 3.7 | 956.4 ± 3.8
3500 kPa | 1056.9 ± 3 | 1047.6 ± 3 | 1036.8 ± 3.1 | 1025.4 ± 3.1 | 1014.6 ± 3.3 | 1001 ± 3.3 | 987.6 ± 3.5 | 972.6 ± 3.7 | 956.6 ± 3.8
4000 kPa | 1057.2 ± 3 | 1047.9 ± 3 | 1037.2 ± 3.1 | 1025.7 ± 3.1 | 1014.9 ± 3.2 | 1001.4 ± 3.3 | 987.9 ± 3.5 | 972.9 ± 3.7 | 957 ± 3.9
4500 kPa | 1057.6 ± 3 | 1048.3 ± 3 | 1037.5 ± 3.1 | 1026.1 ± 3.1 | 1015.3 ± 3.3 | 1001.6 ± 3.3 | 988.2 ± 3.5 | 973.2 ± 3.7 | 957.2 ± 3.8
5000 kPa | 1057.9 ± 3 | 1048.6 ± 3 | 1037.9 ± 3.1 | 1026.5 ± 3.1 | 1015.6 ± 3.3 | 1002 ± 3.3 | 988.5 ± 3.5 | 973.5 ± 3.7 | 957.6 ± 3.8
5500 kPa | 1058.2 ± 3 | 1049 ± 3 | 1038.2 ± 3.1 | 1026.8 ± 3.1 | 1015.9 ± 3.3 | 1002.3 ± 3.3 | 988.9 ± 3.5 | 973.8 ± 3.7 | 957.9 ± 3.8
6000 kPa | 1058.6 ± 3 | 1049.3 ± 3 | 1038.5 ± 3.1 | 1027.1 ± 3.1 | 1016.3 ± 3.3 | 1002.6 ± 3.4 | 989.1 ± 3.5 | 974.2 ± 3.7 | 958.2 ± 3.9
6500 kPa | 1058.9 ± 3 | 1049.6 ± 3 | 1038.9 ± 3.1 | 1027.4 ± 3.1 | 1016.6 ± 3.3 | 1002.9 ± 3.3 | 989.5 ± 3.5 | 974.4 ± 3.7 | 958.5 ± 3.8
7000 kPa | 1059.3 ± 3 | 1049.9 ± 3 | 1039.2 ± 3.1 | 1027.7 ± 3.1 | 1016.9 ± 3.3 | 1003.3 ± 3.4 | 989.7 ± 3.5 | 974.7 ± 3.7 | 958.8 ± 3.8
7500 kPa | 1059.6 ± 3 | 1050.2 ± 3 | 1039.5 ± 3.1 | 1028.1 ± 3.1 | 1017.2 ± 3.3 | 1003.6 ± 3.3 | 990.1 ± 3.5 | 975 ± 3.7 | 959 ± 3.8
8000 kPa | 1060 ± 3 | 1050.6 ± 3 | 1039.9 ± 3.1 | 1028.4 ± 3.2 | 1017.4 ± 3.3 | 1003.9 ± 3.3 | 990.4 ± 3.5 | 975.4 ± 3.7 | 959.4 ± 3.9
8500 kPa | 1060.3 ± 3 | 1050.9 ± 3 | 1040.2 ± 3.1 | 1028.7 ± 3.1 | 1017.8 ± 3.3 | 1004.2 ± 3.4 | 990.6 ± 3.5 | 975.7 ± 3.7 | 959.7 ± 3.9
9000 kPa | 1060.6 ± 3 | 1051.2 ± 3 | 1040.6 ± 3.1 | 1029.1 ± 3.2 | 1018.1 ± 3.3 | 1004.5 ± 3.3 | 991 ± 3.5 | 976 ± 3.7 | 960 ± 3.9
9500 kPa | 1061 ± 3 | 1051.6 ± 3 | 1040.9 ± 3.1 | 1029.4 ± 3.2 | 1018.5 ± 3.3 | 1004.8 ± 3.4 | 991.2 ± 3.5 | 976.3 ± 3.7 | 960.3 ± 3.9
10000 kPa | 1061.4 ± 3 | 1052 ± 3 | 1041.3 ± 3.1 | 1029.8 ± 3.2 | 1018.9 ± 3.3 | 1005.2 ± 3.4 | 991.6 ± 3.5 | 976.7 ± 3.7 | 960.6 ± 3.9
10500 kPa | 1061.7 ± 3 | 1052.3 ± 3 | 1041.6 ± 3.1 | 1030.2 ± 3.2 | 1019.2 ± 3.3 | 1005.5 ± 3.4 | 992 ± 3.5 | 977 ± 3.8 | 960.9 ± 3.9
11000 kPa | 1062 ± 3 | 1052.6 ± 3 | 1041.9 ± 3.1 | 1030.4 ± 3.2 | 1019.5 ± 3.3 | 1005.8 ± 3.4 | 992.3 ± 3.9 | – | 961.2 ± 3.2
11400 kPa | – | – | – | – | – | – | – | – | 961.5 ± 3.9
11500 kPa | 1062.3 ± 3 | 1052.9 ± 3 | 1042.2 ± 3.1 | 1030.7 ± 3.1 | 1019.9 ± 3.3 | 1006.1 ± 3.4 | 992.6 ± 3.5 | 977.6 ± 3.7 | –
12000 kPa | 1062.7 ± 3 | 1053.3 ± 3 | 1042.5 ± 3.1 | 1031 ± 3.1 | 1020.2 ± 3.3 | 1006.5 ± 3.4 | 992.9 ± 3.5 | 977.9 ± 3.7 | 961.8 ± 3.9
12500 kPa | 1063 ± 3 | 1053.6 ± 3 | 1042.9 ± 3.1 | 1031.4 ± 3.2 | 1020.5 ± 3.3 | 1006.7 ± 3.4 | 993.2 ± 3.5 | 978.2 ± 3.7 | 962.1 ± 3.9
13000 kPa | 1063.4 ± 3 | 1054 ± 3 | 1043.2 ± 3.1 | 1031.7 ± 3.2 | 1020.8 ± 3.3 | 1007 ± 3.4 | 993.5 ± 3.5 | 978.5 ± 3.7 | 962.4 ± 3.9
13500 kPa | 1063.7 ± 3 | 1054.3 ± 3.1 | 1043.5 ± 3.1 | 1032 ± 3.2 | 1021.1 ± 3.3 | 1007.4 ± 3.4 | 993.8 ± 3.5 | 978.7 ± 3.8 | 962.6 ± 3.9
14000 kPa | 1063.9 ± 3 | 1054.7 ± 3 | 1043.8 ± 3.1 | 1032.4 ± 3.2 | 1021.4 ± 3.3 | 1007.6 ± 3.4 | 994.1 ± 3.5 | 979 ± 3.8 | 963 ± 3.9
14500 kPa | 1064.3 ± 3 | 1055 ± 3 | 1044.2 ± 3.1 | 1032.6 ± 3.2 | 1021.7 ± 3.3 | 1008 ± 3.4 | 994.4 ± 3.5 | 979.4 ± 3.8 | 963.2 ± 3.9
15000 kPa | 1064.6 ± 3 | 1055.3 ± 3.1 | 1044.5 ± 3.1 | 1032.9 ± 3.2 | 1022 ± 3.3 | 1008.2 ± 3.4 | 994.7 ± 3.5 | 979.6 ± 3.8 | 963.4 ± 3.9
15500 kPa | 1064.9 ± 3 | 1055.6 ± 3.1 | 1044.8 ± 3.1 | 1033.3 ± 3.2 | 1022.3 ± 3.3 | 1008.6 ± 3.4 | 995 ± 3.5 | 980 ± 3.8 | 963.8 ± 3.9
16000 kPa | 1065.3 ± 3 | 1055.9 ± 3.1 | 1045.1 ± 3.1 | 1033.6 ± 3.2 | 1022.6 ± 3.3 | 1009 ± 3.4 | 995.3 ± 3.5 | 980.2 ± 3.8 | 964 ± 3.9
16400 kPa | – | – | – | – | – | – | – | 980.5 ± 3.8 | –
16500 kPa | 1065.6 ± 3.1 | 1056.2 ± 3.1 | 1045.3 ± 3.1 | 1033.9 ± 3.2 | 1022.9 ± 3.3 | 1009.3 ± 3.4 | 995.6 ± 3.5 | – | 964.3 ± 2.8
17000 kPa | 1065.9 ± 3.1 | 1056.5 ± 3.1 | 1045.7 ± 3.1 | 1034.2 ± 3.2 | 1023.2 ± 3.3 | 1009.6 ± 3.4 | 995.9 ± 3.5 | 980.8 ± 3.8 | 964.6 ± 3.9
17400 kPa | – | – | – | – | – | – | 996.2 ± 3.5 | – | –
17500 kPa | 1066.2 ± 3.1 | 1056.8 ± 3.1 | 1046 ± 3.1 | 1034.6 ± 3.2 | 1023.5 ± 3.3 | 1009.9 ± 3.4 | – | 981.1 ± 3.8 | 964.9 ± 3.9
18000 kPa | 1066.5 ± 3.1 | 1057.1 ± 3.1 | 1046.3 ± 3.1 | 1034.9 ± 3.2 | 1023.8 ± 3.3 | 1010.2 ± 3.4 | 996.5 ± 3.5 | 981.4 ± 3.8 | 965.2 ± 3.9
18500 kPa | 1066.8 ± 3.1 | 1057.5 ± 3.1 | 1046.7 ± 3.1 | 1035.2 ± 3.2 | 1024 ± 3.3 | 1010.5 ± 3.4 | 996.9 ± 3.5 | 981.6 ± 3.8 | 965.4 ± 3.9
19000 kPa | 1067.2 ± 3.1 | 1057.8 ± 3.1 | 1047 ± 3.1 | 1035.5 ± 3.2 | 1024.3 ± 3.3 | 1010.9 ± 3.4 | 997.1 ± 3.5 | 982 ± 3.8 | 965.7 ± 3.9
19500 kPa | 1067.5 ± 3.1 | 1058.1 ± 3.1 | 1047.3 ± 3.1 | 1035.9 ± 3.2 | 1024.7 ± 3.3 | 1011.2 ± 3.4 | 997.4 ± 3.5 | 982.3 ± 3.8 | 966 ± 3.9
19900 kPa | – | – | – | – | – | – | 997.6 ± 3.5 | – | –
20000 kPa | 1067.9 ± 3.1 | 1058.4 ± 3.1 | 1047.7 ± 3.1 | 1036.2 ± 3.2 | 1025 ± 3.3 | 1011.5 ± 3.4 | – | 982.6 ± 3.8 | 966.4 ± 3.9
